According to ChEMBL document CHEMBL1201861, “Genomics of Drug Sensitity in Cancer screening data, Wellcome Trust Sanger Institute”:

Experiments:
Experiment in all cases: cells
EW-13 = format: functional, cell-based, Homo sapiens; conditions: Homo sapiens, EW-13; read-out: IC50;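 further: growth inhibition of EW-13 cells, read out with a cell viability assay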
Description: SANGER: Inhibition of human EW-13 cell growth in a cell viability assay.

KNS-81-FD = format: functional, cell-based, Homo sapiens; conditions: Homo sapiens, KNS-81-FD;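 further: growth inhibition of KNS-81-FD cells, read out with a cell viability assay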
Description: SANGER: Inhibition of human KNS-81-FD cell growth in a cell viability assay.

NCI-H747 = format: functional, cell-based, Homo sapiens; conditions: Homo sapiens, NCI-H747;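 further: growth inhibition of human NCI-H747 cells, read out by a cell viability assay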
Description: SANGER: Inhibition of human NCI-H747 cell growth in a cell viability assay.

ES1 = format: functional, cell-based, Homo sapiens; conditions: Homo sapiens, ES1;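 further: growth inhibition of ES1 cells, read out with a cell viability assay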
Description: SANGER: Inhibition of human ES1 cell growth in a cell viability assay.

KP-N-YS = format: functional, cell-based, Homo sapiens; conditions: Homo sapiens, KP-N-YS;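 further: cell viability assay measuring inhibition of cell line growth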
Description: SANGER: Inhibition of human KP-N-YS cell growth in a cell viability assay.

Becker = format: functional, cell-based, Homo sapiens; conditions: Homo sapiens, Becker;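 further: growth inhibition of Becker cells, read out with a cell viability assay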
Description: SANGER: Inhibition of human Becker cell growth in a cell viability assay.

U-87 MG = format: functional, cell-based, Homo sapiens, U-87MG ATCC; conditions: Homo sapiens, U-87 MG;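 further: growth inhibition of the cells measured with a viability assay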
Description: SANGER: Inhibition of human U-87-MG cell growth in a cell viability assay.

NCI-H1395 = format: functional, cell-based, Homo sapiens; conditions: Homo sapiens, NCI-H1395;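 further: cell viability assay read-out quantifying reduced proliferation of human NCI-H1395 cells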
Description: SANGER: Inhibition of human NCI-H1395 cell growth in a cell viability assay.

LNCaP-Clone-FGC = format: functional, cell-based, Homo sapiens; conditions: Homo sapiens, LNCaP-Clone-FGC
Description: SANGER: Inhibition of human LNCaP-Clone-FGC cell growth in a cell viability assay.

AM-38 = format: functional, cell-based, Homo sapiens; conditions: Homo sapiens, AM-38;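 further: growth inhibition of AM-38 cells of human origin, read out by a cell viability assay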
Description: SANGER: Inhibition of human AM-38 cell growth in a cell viability assay.

SNU1 = format: functional, cell-based, Homo sapiens; conditions: Homo sapiens, SNU1;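 further: growth inhibition of human NCI-SNU-1 cells, measured with a cell viability assay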
Description: SANGER: Inhibition of human NCI-SNU-1 cell growth in a cell viability assay.

HOP-62 = format: functional, cell-based, Homo sapiens; conditions: Homo sapiens, HOP-62;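 further: cell growth inhibition determined with a viability assay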
Description: SANGER: Inhibition of human HOP-62 cell growth in a cell viability assay.

ONS-76 = format: functional, cell-based, Homo sapiens; conditions: Homo sapiens, ONS-76;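 further: growth inhibition of human ONS-76 cells, read out with a cell viability assay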
Description: SANGER: Inhibition of human ONS-76 cell growth in a cell viability assay.

RKO = format: functional, cell-based, Homo sapiens; conditions: Homo sapiens, RKO;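 further: growth inhibition of human RKO cells, read out with a cell viability assay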
Description: SANGER: Inhibition of human RKO cell growth in a cell viability assay.

CCRF-CEM = format: functional, cell-based, Homo sapiens; conditions: Homo sapiens, CCRF-CEM;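 further: inhibition of CCRF-CEM cell growth, measured by a cell viability assay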
Description: SANGER: Inhibition of human CCRF-CEM cell growth in a cell viability assay.

LS-513 = format: functional, cell-based, Homo sapiens; conditions: Homo sapiens, LS-513
Description: SANGER: Inhibition of human LS-513 cell growth in a cell viability assay.

LC-2-ad = format: functional, cell-based, Homo sapiens; conditions: Homo sapiens, LC-2-ad;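 further: growth inhibition of human LC-2-ad cells, read out with a cell viability assay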
Description: SANGER: Inhibition of human LC-2-ad cell growth in a cell viability assay.

CAS-1 = format: functional, cell-based, Homo sapiens; conditions: Homo sapiens, CAS-1;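 further: growth inhibition of CAS-1 cells, measured with a cell viability assay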
Description: SANGER: Inhibition of human CAS-1 cell growth in a cell viability assay.

MOLT-16 = format: functional, cell-based, Homo sapiens; conditions: Homo sapiens, MOLT-16;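 further: growth inhibition of human MOLT-16 cells, read out with a cell viability assay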
Description: SANGER: Inhibition of human MOLT-16 cell growth in a cell viability assay.

NOMO-1 = format: functional, cell-based, Homo sapiens; conditions: Homo sapiens, NOMO-1;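 further: growth inhibition of human NOMO-1 cells measured by a cell viability assay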
Description: SANGER: Inhibition of human NOMO-1 cell growth in a cell viability assay.

RH-1 = format: functional, cell-based, Homo sapiens; conditions: Homo sapiens, RH-1;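 further: growth inhibition of human RH-1 cells, read out with a cell viability assay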
Description: SANGER: Inhibition of human RH-1 cell growth in a cell viability assay.

MZ1-PC = format: functional, cell-based, Homo sapiens; conditions: Homo sapiens, MZ1-PC;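 further: cell viability assay measuring growth inhibition of human MZ1-PC cells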
Description: SANGER: Inhibition of human MZ1-PC cell growth in a cell viability assay.

SHP77 = format: functional, cell-based, Homo sapiens, SHP-77; conditions: Homo sapiens, SHP77;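 further: growth inhibition of human SHP-77 cells measured by a cell viability assay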
Description: SANGER: Inhibition of human SHP-77 cell growth in a cell viability assay.

SCH = format: functional, cell-based, Homo sapiens; conditions: Homo sapiens, SCH;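 further: growth inhibition of human SCH cells, read out in a cell viability assay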
Description: SANGER: Inhibition of human SCH cell growth in a cell viability assay.

LU-134-A = format: functional, cell-based, Homo sapiens; conditions: Homo sapiens, LU-134-A
Description: SANGER: Inhibition of human LU-134-A cell growth in a cell viability assay.

LB771-HNC = format: functional, cell-based; conditions: Homo sapiens;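 further: growth inhibition of LB771-HNC human cells, read out with a cell viability assay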
Description: SANGER: Inhibition of human LB771-HNC cell growth in a cell viability assay.

IST-MEL1 = format: functional, cell-based, Homo sapiens; conditions: Homo sapiens, IST-MEL1;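 further: growth inhibition of the cell line, read out with a cell viability assay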
Description: SANGER: Inhibition of human IST-MEL1 cell growth in a cell viability assay.

KALS-1 = format: functional, cell-based, Homo sapiens; conditions: Homo sapiens, KALS-1; read-out: IC50;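 further: growth inhibition of KALS-1 cells, determined with a cell viability assay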
Description: SANGER: Inhibition of human KALS-1 cell growth in a cell viability assay.

KARPAS-299 = format: functional, cell-based, Homo sapiens; conditions: Homo sapiens, KARPAS-299
Description: SANGER: Inhibition of human KARPAS-299 cell growth in a cell viability assay.

MSTO-211H = format: functional, cell-based, Homo sapiens; conditions: Homo sapiens, MSTO-211H
Description: SANGER: Inhibition of human MSTO-211H cell growth in a cell viability assay.

LB996-RCC = format: functional, cell-based, Homo sapiens; conditions: Homo sapiens, LB996-RCC
Description: SANGER: Inhibition of human LB996-RCC cell growth in a cell viability assay.

ES4 = format: functional, cell-based, Homo sapiens; conditions: Homo sapiens, ES4;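 further: growth inhibition of human ES4 cells, read out by a cell viability assay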
Description: SANGER: Inhibition of human ES4 cell growth in a cell viability assay.

LAMA-84 = format: functional, cell-based, Homo sapiens; conditions: Homo sapiens, LAMA-84;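 further: growth inhibition of LAMA-84 cells, read out with a cell viability assay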
Description: SANGER: Inhibition of human LAMA-84 cell growth in a cell viability assay.

SK-N-FI = format: functional, cell-based, Homo sapiens; conditions: Homo sapiens, SK-N-FI;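 further: cell viability assay measuring growth inhibition of human SK-N-FI cells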
Description: SANGER: Inhibition of human SK-N-FI cell growth in a cell viability assay.

HCC2157 = format: functional, cell-based, Homo sapiens; conditions: Homo sapiens, HCC2157;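 further: growth inhibition of the cancer cell line, read out as cell viability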
Description: SANGER: Inhibition of human HCC2157 cell growth in a cell viability assay.

BB30-HNC = format: functional, cell-based, Homo sapiens; conditions: Homo sapiens, BB30-HNC;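 further: growth inhibition of the cultured cell line, read out by a cell viability assay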
Description: SANGER: Inhibition of human BB30-HNC cell growth in a cell viability assay.

A101D = format: functional, cell-based, Homo sapiens; conditions: Homo sapiens, A101D;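 further: growth inhibition of the cell line, measured with a viability assay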
Description: SANGER: Inhibition of human A101D cell growth in a cell viability assay.

EW-16 = format: functional, cell-based, Homo sapiens; conditions: Homo sapiens, EW-16;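 further: growth inhibition of human EW-16 cells, read out as cell viability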
Description: SANGER: Inhibition of human EW-16 cell growth in a cell viability assay.

TE-5 = format: functional, cell-based, Homo sapiens; conditions: Homo sapiens, TE-5;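 further: inhibition of cell growth, read out by a cell viability assay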
Description: SANGER: Inhibition of human TE-5 cell growth in a cell viability assay.

JVM-3 = format: functional, cell-based, Homo sapiens; conditions: Homo sapiens, JVM-3;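 further: growth inhibition of human JVM-3 cells, read out with a cell viability assay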
Description: SANGER: Inhibition of human JVM-3 cell growth in a cell viability assay.

RPMI-8866 = format: functional, cell-based, Homo sapiens; conditions: Homo sapiens, RPMI-8866
Description: SANGER: Inhibition of human RPMI-8866 cell growth in a cell viability assay.

KE-37 = format: functional, cell-based, Homo sapiens; conditions: Homo sapiens, KE-37;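 further: growth inhibition of KE-37 cells, read out with a cell viability assay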
Description: SANGER: Inhibition of human KE-37 cell growth in a cell viability assay.

ACN = format: functional, cell-based, Homo sapiens; conditions: Homo sapiens, ACN;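 further: growth inhibition of the human ACN cell line, read out via cell viability testing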
Description: SANGER: Inhibition of human ACN cell growth in a cell viability assay.

LB831-BLC = format: functional, cell-based, Homo sapiens; conditions: Homo sapiens, LB831-BLC;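 further: growth inhibition of LB831-BLC cells, read out with a cell viability assay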
Description: SANGER: Inhibition of human LB831-BLC cell growth in a cell viability assay.

ML-2 = format: functional, cell-based, Homo sapiens; conditions: Homo sapiens, ML-2;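 further: growth inhibition of ML-2 cells, measured with a cell viability readout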
Description: SANGER: Inhibition of human ML-2 cell growth in a cell viability assay.

LAN-6 = format: functional, cell-based, Homo sapiens; conditions: Homo sapiens, LAN-6;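 further: growth inhibition of LAN-6 cells, determined with a cell viability assay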
Description: SANGER: Inhibition of human LAN-6 cell growth in a cell viability assay.

C8166 = format: functional, cell-based, Homo sapiens; conditions: Homo sapiens, C8166;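 further: growth inhibition of human C8166 cells measured by a cell viability assay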
Description: SANGER: Inhibition of human C8166 cell growth in a cell viability assay.

NCI-H209 = format: functional, cell-based, Homo sapiens; conditions: Homo sapiens, NCI-H209;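 further: growth inhibition of human NCI-H209 cells, measured by a cell viability assay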
Description: SANGER: Inhibition of human NCI-H209 cell growth in a cell viability assay.

Work on `Cc1cc(N2CCOCC2)cc2[nH]c(-c3c(NC[C@@H](O)c4cccc(Cl)c4)cc[nH]c3=O)nc12` yielded an IC50 (EW-13) of over 5120 nM, an IC50 (KNS-81-FD) of over 5120 nM and an IC50 (NCI-H747) of 680 nM. For the same compound, the IC50 (ES1) was 1620 nM, the IC50 (KP-N-YS) was over 5120 nM and the IC50 (Becker) was 4790 nM. The IC50 (U-87 MG) was over 5120 nM, the IC50 (NCI-H1395) was over 5120 nM and the IC50 (LNCaP-Clone-FGC) was over 5120 nM. It also gave an IC50 (AM-38) of over 5120 nM, an IC50 (SNU1) of over 5120 nM and an IC50 (HOP-62) of 936 nM. The IC50 (ONS-76) was over 5120 nM, the IC50 (RKO) was 1000 nM and the IC50 (CCRF-CEM) was over 5120 nM. It also gave an IC50 (LS-513) of 4170 nM, an IC50 (LC-2-ad) of 117 nM and an IC50 (CAS-1) of over 5120 nM. The IC50 (MOLT-16) was 5020 nM, the IC50 (NOMO-1) was over 5120 nM and the IC50 (RH-1) was over 5120 nM. For the same compound, the IC50 (MZ1-PC) was 764 nM, the IC50 (SHP77) was over 5120 nM and the IC50 (SCH) was over 5120 nM. The IC50 (LU-134-A) was 1600 nM, the IC50 (LB771-HNC) was 230 nM and the IC50 (IST-MEL1) was 4600 nM. It also gave an IC50 (KALS-1) of over 5120 nM, an IC50 (KARPAS-299) of 3850 nM and an IC50 (MSTO-211H) of over 5120 nM. The IC50 (LB996-RCC) was 816 nM, the IC50 (ES4) was 622 nM and the IC50 (LAMA-84) was over 5120 nM. It also gave an IC50 (SK-N-FI) of over 5120 nM, an IC50 (HCC2157) of over 5120 nM and an IC50 (BB30-HNC) of 1120 nM. The IC50 (A101D) was 1890 nM, the IC50 (EW-16) was 206 nM and the IC50 (TE-5) was over 5120 nM. It also gave an IC50 (JVM-3) of over 5120 nM, an IC50 (RPMI-8866) of over 5120 nM and an IC50 (KE-37) of over 5120 nM. It also gave an IC50 (ACN) of 1980 nM, an IC50 (LB831-BLC) of 1500 nM and an IC50 (ML-2) of 192 nM. It also gave an IC50 (LAN-6) of 172 nM, an IC50 (C8166) of over 5120 nM and an IC50 (NCI-H209) of over 5120 nM.

Work on `CC(C)C[C@H](NC(=O)[C@H](Cc1ccccc1)NC(=O)c1cnccn1)B(O)O` [BORTEZOMIB] yielded an IC50 (EW-13) of over 20 nM, an IC50 (KNS-81-FD) of 2.48 nM and an IC50 (NCI-H747) of 0.539 nM. For the same compound, the IC50 (ES1) was 0.43 nM, the IC50 (KP-N-YS) was over 20 nM and the IC50 (Becker) was 1.83 nM. The IC50 (U-87 MG) was 16.8 nM, the IC50 (NCI-H1395) was over 20 nM and the IC50 (LNCaP-Clone-FGC) was over 20 nM. The IC50 (AM-38) was over 20 nM, the IC50 (SNU1) was 13.2 nM and the IC50 (HOP-62) was 0.647 nM. The IC50 (ONS-76) was 0.33 nM, the IC50 (RKO) was 1.06 nM and the IC50 (CCRF-CEM) was 1.13 nM. The IC50 (LS-513) was 0.739 nM, the IC50 (LC-2-ad) was 1.08 nM and the IC50 (CAS-1) was 1.37 nM. The IC50 (MOLT-16) was 2.89 nM, the IC50 (NOMO-1) was 4.33 nM and the IC50 (RH-1) was over 20 nM. It also gave an IC50 (MZ1-PC) of 3.54 nM, an IC50 (SHP77) of over 20 nM and an IC50 (SCH) of over 20 nM. It also gave an IC50 (LU-134-A) of 7.39 nM, an IC50 (LB771-HNC) of 0.474 nM and an IC50 (IST-MEL1) of 0.917 nM. It also gave an IC50 (KALS-1) of 0.925 nM, an IC50 (KARPAS-299) of 3.06 nM and an IC50 (MSTO-211H) of over 20 nM. The IC50 (LB996-RCC) was 3.4 nM, the IC50 (ES4) was 2.16 nM and the IC50 (LAMA-84) was 3.49 nM. The IC50 (SK-N-FI) was over 20 nM, the IC50 (HCC2157) was over 20 nM and the IC50 (BB30-HNC) was 0.335 nM. It also gave an IC50 (A101D) of 0.225 nM, an IC50 (EW-16) of 2.75 nM and an IC50 (TE-5) of 0.865 nM. It also gave an IC50 (JVM-3) of 13 nM, an IC50 (RPMI-8866) of over 20 nM and an IC50 (KE-37) of 2.13 nM. For the same compound, the IC50 (ACN) was 0.417 nM, the IC50 (LB831-BLC) was 0.641 nM and the IC50 (ML-2) was 0.821 nM. The IC50 (LAN-6) was 2.05 nM, the IC50 (C8166) was over 20 nM and the IC50 (NCI-H209) was over 20 nM.

`Cc1ccc(-n2nc(C(C)(C)C)cc2NC(=O)Nc2ccc(OCCN3CCOCC3)c3ccccc23)cc1` [DORAMAPIMOD] was tested, and the IC50 (EW-13) was over 10000 nM, the IC50 (KNS-81-FD) was over 10000 nM and the IC50 (NCI-H747) was over 10000 nM. For the same compound, the IC50 (ES1) was over 10000 nM, the IC50 (KP-N-YS) was over 10000 nM and the IC50 (Becker) was over 10000 nM. For the same compound, the IC50 (U-87 MG) was over 10000 nM, the IC50 (NCI-H1395) was over 10000 nM and the IC50 (LNCaP-Clone-FGC) was over 10000 nM. For the same compound, the IC50 (AM-38) was over 10000 nM, the IC50 (SNU1) was 9070 nM and the IC50 (HOP-62) was over 10000 nM. The IC50 (ONS-76) was over 10000 nM, the IC50 (RKO) was over 10000 nM and the IC50 (CCRF-CEM) was over 10000 nM. It also gave an IC50 (LS-513) of over 10000 nM, an IC50 (LC-2-ad) of over 10000 nM and an IC50 (CAS-1) of over 10000 nM. For the same compound, the IC50 (MOLT-16) was over 10000 nM, the IC50 (NOMO-1) was over 10000 nM and the IC50 (RH-1) was over 10000 nM. It also gave an IC50 (MZ1-PC) of over 10000 nM, an IC50 (SHP77) of over 10000 nM and an IC50 (SCH) of over 10000 nM. For the same compound, the IC50 (LU-134-A) was over 10000 nM, the IC50 (LB771-HNC) was over 10000 nM and the IC50 (IST-MEL1) was over 10000 nM. It also gave an IC50 (KALS-1) of over 10000 nM, an IC50 (KARPAS-299) of over 10000 nM and an IC50 (MSTO-211H) of over 10000 nM. For the same compound, the IC50 (LB996-RCC) was over 10000 nM, the IC50 (ES4) was over 10000 nM and the IC50 (LAMA-84) was over 10000 nM. For the same compound, the IC50 (SK-N-FI) was over 10000 nM, the IC50 (HCC2157) was over 10000 nM and the IC50 (BB30-HNC) was over 10000 nM. The IC50 (A101D) was over 10000 nM, the IC50 (EW-16) was over 10000 nM and the IC50 (TE-5) was over 10000 nM. It also gave an IC50 (JVM-3) of over 10000 nM, an IC50 (RPMI-8866) of over 10000 nM and an IC50 (KE-37) of over 10000 nM. The IC50 (ACN) was over 10000 nM, the IC50 (LB831-BLC) was over 10000 nM and the IC50 (ML-2) was over 10000 nM. The IC50 (LAN-6) was over 10000 nM, the IC50 (C8166) was over 10000 nM and the IC50 (NCI-H209) was over 10000 nM.
